From publication PMC4890785, “Recombinant L-Asparaginase from Zymomonas mobilis: A Potential New Antileukemic Agent Produced in Escherichia coli” (PLoS ONE, 2016)

Target: T1, L-asparaginase from Z. mobilis (L-AspZ) (Zymomonas mobilis, UniProt Q5NLV3)
T1 construct: gene ZMO1683; first 29 residues (signal peptide) removed; codon-optimised gene in E. coli BL21(DE3): pET26b (pelB, extracellular) or pET28a (cytoplasmic); not purified
Experiment: ammonia release, salicylate-hypochlorite (indophenol) colorimetry
Type: biochemical
Details: sonicated E. coli lysate or concentrated culture medium; 37 °C, pH 7.3, 20 mM sodium phosphate; asparagine stock 5 g/L mixed 1:1; uninduced control tested

T1 sequence (Q5NLV3 entry or part of it): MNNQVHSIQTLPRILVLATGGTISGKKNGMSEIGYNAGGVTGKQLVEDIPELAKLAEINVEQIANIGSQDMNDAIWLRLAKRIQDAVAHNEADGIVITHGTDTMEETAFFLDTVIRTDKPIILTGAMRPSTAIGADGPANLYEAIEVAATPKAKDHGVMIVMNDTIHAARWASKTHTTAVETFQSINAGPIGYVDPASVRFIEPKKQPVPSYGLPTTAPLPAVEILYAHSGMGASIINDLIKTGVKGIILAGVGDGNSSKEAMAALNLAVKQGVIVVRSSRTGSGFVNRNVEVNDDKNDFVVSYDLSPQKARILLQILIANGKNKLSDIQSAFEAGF

## NC(=O)C[C@H](N)C(=O)O [asparagine]
  ammonia release, salicylate-hypochlorite (indophenol) colorimetry: Enzyme activity was measured by hydrolyzing asparagine to aspartate and ammonia
